Measurements from patent US12447167B2, “GM-CSF-producing t-cell control agent and Th1/Th2 immune balance regulator” (National Center of Neurology and Psychiatry, priority 2014, dated 2025).

What was measured:
[1] = Disposition after single oral dose, humans (normal subjects); format: in vivo, human; design: concentration in blood: unit not given here; conditions: for AUC(0-inf) / AUC(0-t) / half-life / Cmax / Tmax: human; for AUC(0-inf) / AUC(0-t) / half-life: blood; for AUC(0-inf) / AUC(0-t) / half-life / Cmax / Tmax / concentration in blood: normal subjects; for Cmax / Tmax: plasma
Method: (§1) After a single dose of compound 31 labeled with ^14C was orally administered at a predetermined dose to each of a male mouse, a male rat, and a male cynomolgus monkey under fasting conditions, the concentration in blood was measured after a lapse of a given time, and parameters such as maximum plasma concentration Cmax, time Tmax to reach the maximum plasma concentration, half-life t1/2, area under curve AUC0-∞, mean retention time MRT0-∞, and bioavailability BA were calculated. The concentration in blood in humans (normal subjects) was measured and each of the parameters was calculated, in the similar manner as above except that ^14C-unlabeled compound 31 was used.
(§2) In the tables, “N.D.” means not detected.
In this context, assuming the body weights of the humans were 60 kg, the doses were corrected to be the same, and the value of AUC0-∞ was compared between the mouse, the rat, and the cynomolgus monkey, and the humans. […] Specifically, AUC0-∞ for the humans was 2.72 to 8.94 times AUC0-∞ for the mouse, 4.77 to 15.7 times AUC0-∞ for the rat, and 6.69 to 22.0 times AUC0-∞ for the cynomolgus monkey.

[2] = Disposition after single oral dose, cynomolgus monkey; format: in vivo; conditions: male cynomolgus monkey, 10 mg/kg single oral, 14C-labeled, fasting
Method: as §1, §2

Structure (SMILES): CCCCCCCCCCCCCCCCCCCCCCCC(=O)NC(COC1OC(CO)C(O)C(O)C1O)[C@H](O)C(O)CCCCC (stereo in doubt) [compound 31, (2S,3S,4R)-1-O-(α-D-galactosyl)-2-(N-tetracosanoylamino)-1,3,4-nonanetriol]
- species difference (fold) of dose-corrected AUC0-∞, human vs cynomolgus monkey ([1]; human 0.3 mg/body (60 kg assumed) vs cynomolgus monkey 10 mg/kg): 19.70 fold
- species difference (fold) of dose-corrected AUC0-∞, human vs mouse ([1]; human 0.3 mg/body (60 kg assumed) vs mouse 5 mg/kg): 8.01 fold
- species difference (fold) of dose-corrected AUC0-∞, human vs rat ([1]; human 0.3 mg/body (60 kg assumed) vs rat 10 mg/kg): 14.05 fold
- species difference (fold) of dose-corrected AUC0-∞, human vs cynomolgus monkey ([1]; human 1 mg/body (60 kg assumed) vs cynomolgus monkey 10 mg/kg): 21.99 fold
- species difference (fold) of dose-corrected AUC0-∞, human vs mouse ([1]; human 1 mg/body (60 kg assumed) vs mouse 5 mg/kg): 8.94 fold
- species difference (fold) of dose-corrected AUC0-∞, human vs rat ([1]; human 1 mg/body (60 kg assumed) vs rat 10 mg/kg): 15.69 fold
- species difference (fold) of dose-corrected AUC0-∞, human vs cynomolgus monkey ([1]; human 3 mg/body (60 kg assumed) vs cynomolgus monkey 10 mg/kg): 12.29 fold
- species difference (fold) of dose-corrected AUC0-∞, human vs mouse ([1]; human 3 mg/body (60 kg assumed) vs mouse 5 mg/kg): 5.00 fold
- species difference (fold) of dose-corrected AUC0-∞, human vs rat ([1]; human 3 mg/body (60 kg assumed) vs rat 10 mg/kg): 8.77 fold
- species difference (fold) of dose-corrected AUC0-∞, human vs cynomolgus monkey ([1]; human 10 mg/body (60 kg assumed) vs cynomolgus monkey 10 mg/kg): 9.62 fold
- species difference (fold) of dose-corrected AUC0-∞, human vs mouse ([1]; human 10 mg/body (60 kg assumed) vs mouse 5 mg/kg): 3.91 fold
- species difference (fold) of dose-corrected AUC0-∞, human vs rat ([1]; human 10 mg/body (60 kg assumed) vs rat 10 mg/kg): 6.86 fold
- species difference (fold) of dose-corrected AUC0-∞, human vs cynomolgus monkey ([1]; human 30 mg/body (60 kg assumed) vs cynomolgus monkey 10 mg/kg): 6.69 fold
- species difference (fold) of dose-corrected AUC0-∞, human vs mouse ([1]; human 30 mg/body (60 kg assumed) vs mouse 5 mg/kg): 2.72 fold
- species difference (fold) of dose-corrected AUC0-∞, human vs rat ([1]; human 30 mg/body (60 kg assumed) vs rat 10 mg/kg): 4.77 fold
- AUC(0-inf) ([1]; 0.3 mg/body oral): 23.4 ng·h/mL
- AUC(0-t) ([1]; 0.3 mg/body oral): 11.7 ng·h/mL
- half-life ([1]; 0.3 mg/body oral): 21.4 h
- AUC(0-inf) ([1]; 1 mg/body oral): 87.1 ng·h/mL
- AUC(0-t) ([1]; 1 mg/body oral): 63.4 ng·h/mL
- half-life ([1]; 1 mg/body oral): 44.3 h
- AUC(0-inf) ([1]; 3 mg/body oral): 146 ng·h/mL
- AUC(0-t) ([1]; 3 mg/body oral): 121 ng·h/mL
- half-life ([1]; 3 mg/body oral): 47.8 h
- AUC(0-inf) ([1]; 10 mg/body oral): 381 ng·h/mL
- AUC(0-t) ([1]; 10 mg/body oral): 324 ng·h/mL
- half-life ([1]; 10 mg/body oral): 45.3 h
- AUC(0-inf) ([1]; 30 mg/body oral): 795 ng·h/mL
- AUC(0-t) ([1]; 30 mg/body oral): 657 ng·h/mL
- half-life ([1]; 30 mg/body oral): 53.6 h
- Cmax ([1]; 0.3 mg/body oral): 0.629 ng/mL
- Tmax ([1]; 0.3 mg/body oral): 13 h
- Cmax ([1]; 1 mg/body oral): 1.49 ng/mL
- Tmax ([1]; 1 mg/body oral): 20.7 h
- Cmax ([1]; 3 mg/body oral): 2.11 ng/mL
- Tmax ([1]; 3 mg/body oral): 28.3 h
- Cmax ([1]; 10 mg/body oral): 6.01 ng/mL
- Tmax ([1]; 10 mg/body oral): 26.3 h
- Cmax ([1]; 30 mg/body oral): 9.81 ng/mL
- Tmax ([1]; 30 mg/body oral): 28.3 h
- concentration in blood ([1]; 0.3 mg/body oral, 6 h): 0.368
- concentration in blood ([1]; 0.3 mg/body oral, 13 h): 0.629
- concentration in blood ([1]; 0.3 mg/body oral, 21 h): 0.365
- concentration in blood ([1]; 0.3 mg/body oral, 24 h): 0.31
- concentration in blood ([1]; 0.3 mg/body oral, 30 h): 0.382
- concentration in blood ([1]; 1 mg/body oral, 6 h): 0.368
- concentration in blood ([1]; 1 mg/body oral, 13 h): 1.39
- concentration in blood ([1]; 1 mg/body oral, 21 h): 1.04
- concentration in blood ([1]; 1 mg/body oral, 24 h): 0.98
- concentration in blood ([1]; 1 mg/body oral, 30 h): 0.961
- concentration in blood ([1]; 1 mg/body oral, 36 h): 1.01
- concentration in blood ([1]; 1 mg/body oral, 48 h): 0.719
- concentration in blood ([1]; 1 mg/body oral, 72 h): 0.484
- concentration in blood ([1]; 1 mg/body oral, 96 h): 0.224
- concentration in blood ([1]; 3 mg/body oral, 6 h): 0.337
- concentration in blood ([1]; 3 mg/body oral, 13 h): 1.13
- concentration in blood ([1]; 3 mg/body oral, 21 h): 1.33
- concentration in blood ([1]; 3 mg/body oral, 24 h): 1.33
- concentration in blood ([1]; 3 mg/body oral, 30 h): 1.7
- concentration in blood ([1]; 3 mg/body oral, 36 h): 1.99
- concentration in blood ([1]; 3 mg/body oral, 48 h): 1.37
- concentration in blood ([1]; 3 mg/body oral, 72 h): 0.838
- concentration in blood ([1]; 3 mg/body oral, 96 h): 0.549
- concentration in blood ([1]; 3 mg/body oral, 144 h): 0.266
- concentration in blood ([1]; 10 mg/body oral, 6 h): 2.01
- concentration in blood ([1]; 10 mg/body oral, 13 h): 3.32
- concentration in blood ([1]; 10 mg/body oral, 21 h): 3.15
- concentration in blood ([1]; 10 mg/body oral, 24 h): 3.33
- concentration in blood ([1]; 10 mg/body oral, 30 h): 3.76
- concentration in blood ([1]; 10 mg/body oral, 36 h): 5.37
- concentration in blood ([1]; 10 mg/body oral, 48 h): 3.66
- concentration in blood ([1]; 10 mg/body oral, 72 h): 2.23
- concentration in blood ([1]; 10 mg/body oral, 96 h): 1.42
- concentration in blood ([1]; 10 mg/body oral, 144 h): 0.689
- concentration in blood ([1]; 30 mg/body oral, 6 h): 2.82
- concentration in blood ([1]; 30 mg/body oral, 13 h): 6.65
- concentration in blood ([1]; 30 mg/body oral, 21 h): 6.98
- concentration in blood ([1]; 30 mg/body oral, 24 h): 7.47
- concentration in blood ([1]; 30 mg/body oral, 30 h): 8.08
- concentration in blood ([1]; 30 mg/body oral, 36 h): 9.46
- concentration in blood ([1]; 30 mg/body oral, 48 h): 6.58
- concentration in blood ([1]; 30 mg/body oral, 72 h): 4.65
- concentration in blood ([1]; 30 mg/body oral, 96 h): 3.05
- concentration in blood ([1]; 30 mg/body oral, 144 h): 1.82
- AUC(0-inf) ([2]; blood): 2380 ng·h/mL
- AUC(0-t) ([2]; blood): 2260 ng·h/mL
- half-life ([2]; blood): 39.2 h
- MRT inf ([2]; blood, read-out: MRT0-∞): 60.9 h
- BA [2]: 0.11%
- Rate of absorption [2]: 0.41%
- concentration in blood ([2]; 4 h): 1.92
- concentration in blood ([2]; 8 h): 9.59
- concentration in blood ([2]; 12 h): 33.4
- concentration in blood ([2]; 24 h): 35.2
- concentration in blood ([2]; 48 h): 26.5
- concentration in blood ([2]; 72 h): 13
- concentration in blood ([2]; 96 h): 7.1
- concentration in blood ([2]; 120 h): 4.21
- concentration in blood ([2]; 144 h): 2.83
- concentration in blood ([2]; 168 h): 2.05
- Cmax ([2]; plasma): 39.4 ng/mL
- Tmax ([2]; plasma): 28 h
